Test results as given in article PMC7343746, “(2S, 4R)-4-[^18F]Fluoroglutamine for In vivo PET Imaging of Glioma Xenografts in Mice: an Evaluation of Multiple Pharmacokinetic Models” (Molecular Imaging and Biology, 2020).

What was measured:
[1] = test system: patient-derived BT3 glioma cells; assay: 2-Compartment model, orthotopic model; format: in vivo, BALB/cOlaHsd-Foxn1^nu mouse
Method: (§1) Image analysis was performed using CARIMAS software published and freely distributed by the Turku PET Center (http://turkupetcentre.fi/carimas/). CT scans were used as rough anatomical reference while tumor regions of interest (ROI) were hand-drawn based upon observed spikes of radioactivity in the PET images at locations correlating with recorded tumor grafts. Control muscle ROIs were drawn on the side opposite to the tumor in the leg flank muscle (based on CT) while the blood ROI was drawn based upon heart anatomical location and observed PET image radioactivity spike during the initial 20 s of imaging in the left ventricle. Standardized uptake values (SUV) were calculated with respect to ROI volume, mean and max tumor radioactivity, total injected radioactivity dose (corrected for tail, cannula, and syringe residual radioactivity), and animal weight, and were additionally presented as tumor-to-background ratio (TBR, tumor-to-healthy brain region for intracranial gliomas and tumor-to-muscle for subcutaneous gliomas) as defined by recent glioma research literature standards. Mean and maximum TBR values were reported as ROI radioactivity per volume divided by mean background radioactivity per volume. The blood radioactivity SUV and gender-specific metabolite-corrected blood radioactivity SUV were then applied to multiple pharmacokinetic models to characterize the flux of the tracer (further described in the “Modeling” section).
Using the heart’s left ventricle ROI from the PET data as an uncorrected radioactivity level input and the bioavailable parent-tracer fraction (results: Eqs. 3 and 4 applied to the uncorrected input) as the corrected input, multiple models were investigated to characterize the tissue uptake dynamics. Two-compartment modeling and Logan, Patlak, and Yokoi plots were used to separately model the pharmacokinetics for the gliomas (both subcutaneous and orthotopic loci) and their respective control tissues (healthy muscle and healthy brain, respectively). Where indicated, means plus/minus standard deviations are reported. Difference in parameters for uncorrected versus correct and target tissue versus their respective control regions were tested with students’ paired t tests with P values lower than 0.05 being considered significant.

rat BT4C glioma cells = assay: In vivo PET imaging of subcutaneous glioma xenografts; set-up: species or system Foxn1^nu/nu mouse; conditions: for Tumor-to-background muscle ratio: at uptake plateau around 12.5 min
Description: The subcutaneous tumor model was created by injecting rat BT4C glioma cells subcutaneously into the hind leg and neck region of six athymic nude (Foxn1^nu/nu, Envigo, Gannant, France) mice at 7 weeks old. Tumor growth was visually tracked and subjects PET imaged after 5 weeks. See Electronic Supplemental Materials (ESM) for detailed animal models.
One to two mice were imaged at a time while under 2 % isoflurane anesthesia with an Inveon multimodality small animal PET/CT scanner (Siemens Medical Solutions, Munich, Germany) commencing with an attenuation CT scan to correct the PET scan data. Ten to twelve megabequerels of the tracer was injected into the tail vein, and the subject(s) were imaged over a 60-min period in list mode dividing framing into 6 × 10 s, 4 × 60 s, 5 × 300 s, 3 × 600 s. Obtained sinograms were reconstructed using the ordered-subset expectation maximization 2-dimensional algorithm to obtain the final PET images and back-corrected for radionuclide decay.
as §1

[2] = Subject A brain (control), arterial blood input
[3] = Subject A brain (control), plasma-corrected input
[4] = Subject A glioma max., arterial blood input
[5] = Subject A glioma max., plasma-corrected input
[6] = Subject A o.t. glioma, arterial blood input
[7] = Subject A o.t. glioma, plasma-corrected input
[8] = Subject B brain (control), arterial blood input
[9] = Subject B brain (control), plasma-corrected input
[10] = Subject B glioma max., arterial blood input
[11] = Subject B glioma max., plasma-corrected input
[12] = Subject B o.t. glioma, arterial blood input
[13] = Subject B o.t. glioma, plasma-corrected input

NC(=O)[C@H]([18F])C[C@H](N)C(=O)O [[^18F]FGln, (2S, 4R)-4-[^18F]fluoroglutamine]
2-Compartment K1 [1, 2]: 0.015 mL min-1 mL-1
2-Compartment K1/k2 [1, 2]: 0.143 mL mL-1
2-Compartment Vb [1, 2]: 7.82%
2-Compartment k3 [1, 2]: 0.032 min⁻¹
2-Compartment k3*K1/k2 [1, 2]: 0.005
2-Compartment k3/(k2+k3) [1, 2]: 0.235
2-Compartment K1 [1, 3]: 0.016 mL min-1 mL-1
2-Compartment K1/k2 [1, 3]: 0.210 mL mL-1
2-Compartment Vb [1, 3]: 7.77%
2-Compartment k3 [1, 3]: 0.051 min⁻¹
2-Compartment k3*K1/k2 [1, 3]: 0.011
2-Compartment k3/(k2+k3) [1, 3]: 0.396
2-Compartment K1 [1, 4]: 0.149 mL min-1 mL-1
2-Compartment K1/k2 [1, 4]: 1.169 mL mL-1
2-Compartment Vb [1, 4]: 20%
2-Compartment k3 [1, 4]: 0.015 min⁻¹
2-Compartment k3*K1/k2 [1, 4]: 0.018
2-Compartment k3/(k2+k3) [1, 4]: 0.105
2-Compartment K1 [1, 5]: 0.156 mL min-1 mL-1
2-Compartment K1/k2 [1, 5]: 1.769 mL mL-1
2-Compartment Vb [1, 5]: 20%
2-Compartment k3 [1, 5]: 0.023 min⁻¹
2-Compartment k3*K1/k2 [1, 5]: 0.041
2-Compartment k3/(k2+k3) [1, 5]: 0.208
2-Compartment K1 [1, 6]: 0.116 mL min-1 mL-1
2-Compartment K1/k2 [1, 6]: 0.919 mL mL-1
2-Compartment Vb [1, 6]: 11.5%
2-Compartment k3 [1, 6]: 0.018 min⁻¹
2-Compartment k3*K1/k2 [1, 6]: 0.016
2-Compartment k3/(k2+k3) [1, 6]: 0.122
2-Compartment K1 [1, 7]: 0.123 mL min-1 mL-1
2-Compartment K1/k2 [1, 7]: 1.373 mL mL-1
2-Compartment Vb [1, 7]: 11.6%
2-Compartment k3 [1, 7]: 0.027 min⁻¹
2-Compartment k3*K1/k2 [1, 7]: 0.038
2-Compartment k3/(k2+k3) [1, 7]: 0.234
2-Compartment K1 [1, 8]: 0.017 mL min-1 mL-1
2-Compartment K1/k2 [1, 8]: 0.127 mL mL-1
2-Compartment Vb [1, 8]: 5.5%
2-Compartment k3 [1, 8]: 0.031 min⁻¹
2-Compartment k3*K1/k2 [1, 8]: 0.004
2-Compartment k3/(k2+k3) [1, 8]: 0.186
2-Compartment K1 [1, 9]: 0.018 mL min-1 mL-1
2-Compartment K1/k2 [1, 9]: 0.168 mL mL-1
2-Compartment Vb [1, 9]: 5.52%
2-Compartment k3 [1, 9]: 0.051 min⁻¹
2-Compartment k3*K1/k2 [1, 9]: 0.009
2-Compartment k3/(k2+k3) [1, 9]: 0.318
2-Compartment K1 [1, 10]: 0.102 mL min-1 mL-1
2-Compartment K1/k2 [1, 10]: 0.447 mL mL-1
2-Compartment Vb [1, 10]: 13.3%
2-Compartment k3 [1, 10]: 0.036 min⁻¹
2-Compartment k3*K1/k2 [1, 10]: 0.016
2-Compartment k3/(k2+k3) [1, 10]: 0.137
2-Compartment K1 [1, 11]: 0.111 mL min-1 mL-1
2-Compartment K1/k2 [1, 11]: 0.515 mL mL-1
2-Compartment Vb [1, 11]: 13.4%
2-Compartment k3 [1, 11]: 0.062 min⁻¹
2-Compartment k3*K1/k2 [1, 11]: 0.032
2-Compartment k3/(k2+k3) [1, 11]: 0.224
2-Compartment K1 [1, 12]: 0.061 mL min-1 mL-1
2-Compartment K1/k2 [1, 12]: 0.536 mL mL-1
2-Compartment Vb [1, 12]: 10.2%
2-Compartment k3 [1, 12]: 0.020 min⁻¹
2-Compartment k3*K1/k2 [1, 12]: 0.011
2-Compartment k3/(k2+k3) [1, 12]: 0.150
2-Compartment K1 [1, 13]: 0.063 mL min-1 mL-1
2-Compartment K1/k2 [1, 13]: 0.767 mL mL-1
2-Compartment Vb [1, 13]: 10.5%
2-Compartment k3 [1, 13]: 0.032 min⁻¹
2-Compartment k3*K1/k2 [1, 13]: 0.025
2-Compartment k3/(k2+k3) [1, 13]: 0.280
Tumor-to-background muscle ratio (rat BT4C glioma cells; flank locus): 2.0 ± 0.8
Tumor-to-background muscle ratio (rat BT4C glioma cells; neck locus): 1.8 ± 0.6
PET tumor-to-muscle (flank) ratio (rat BT4C glioma cells; subcutaneous BT4C gliomas, n = 12): 1.9 ± 0.7
Time at which tracer uptake plateaued (rat BT4C glioma cells; subcutaneous BT4C tumors): around 12.5 min
